Common to all, as to test: Postemergence herbicidal activity, greenhouse trial (visual injury)
Holding throughout (type): in vivo

In test [1] the test system is Brassica napus (winter rape), BRSNW. As to conditions: 20-22 d. As to the method: (§1) Seeds of the desired test plant species were planted in Sun Gro MetroMix® 360 planting mixture, which typically has a pH of 6.0 to 6.8 and an organic matter content of about 30 percent, in plastic pots with a surface area of 103.2 square centimeters (cm^2). When required to ensure good germination and healthy plants, a fungicide treatment and/or other chemical or physical treatment was applied. The plants were grown for 7-36 days (d) in a greenhouse with an approximate 14-hour (h) photoperiod which was maintained at about 23° C. during the day and 22° C. during the night. Nutrients and water were added on a regular basis and supplemental lighting was provided with overhead metal halide 1000-Watt lamps as necessary. The plants were employed for testing when they reached the second or third true leaf stage.
(§2) Weighed amounts of technical material were dissolved in a volume of 97:3 volume per volume (v/v) acetone/dimethyl sulfoxide (DMSO) to make stock solutions. […] The concentrated stock solutions were diluted with an aqueous mixture of 1.5% v/v of Agri-dex crop oil concentrate to provide the appropriate application rates. Compound requirements are based upon a 12 milliliter (mL) application volume at a rate of 187 liters per hectare (L/ha). Spray solutions of the experimental compound mixtures were prepared by adding the stock solutions to the appropriate amount of dilution solution to form a 12 mL spray solution in two-way combinations. Formulated compounds were applied to the plant material with an overhead Mandel track sprayer equipped with 8002E nozzles calibrated to deliver 187 L/ha over an application area of 0.503 square meters (m^2) at a spray height of 18 inches (43 centimeters (cm)) above average plant canopy. Control plants were sprayed in the same manner with the solvent blank. Application rates for component (a) are in g ae/ha, and application rates for component (b) are in g ai/ha.
(§3) The treated plants and control plants were placed in a greenhouse as described above and watered by sub-irrigation to prevent wash-off of the test compounds. After 20-22 d, the condition of the test plants as compared with that of the control plants was determined visually and scored on a scale of 0 to 100 percent where 0 corresponds to no injury and 100 corresponds to complete kill. The condition of the test plants was compared with that of the control plants as determined visually and scored on a scale of 0 to 100 percent, where 0 corresponds to no injury and 100 corresponds to complete kill. Colby' s equation was used to determine the herbicidal effects expected from the mixtures.
(§4) Compound 1 was formulated as an EC and was combined with glyphosate or glufosinate and applied to weeds, and the phytotoxicity of the herbicidal composition was measured.

The test system of test [2] is Cirsium arvense (thistle), CIRAR. As to conditions: 20-22 d. On the procedure: as §1, §2, §3, §4
For test [3], the system named is Brassica rapa (turnip), BRSRR. As to conditions: 20-22 d. On the procedure:
as §1, §2, §3, §4

Test [4] relates to Helianthus annuus (sunflower), HELAN. As to conditions: 20-22 d. As to the method: as §1, §2, §3, §4
For test [5], the system named is Zea mays (maize/corn), ZEAMX. As to conditions: 20-22 d. On the procedure: as §1, §2, §3, §4
For test [6], the system named is Polygonum convolvulus (wild buckwheat), POLCO. As to conditions: 20-22 d. On the procedure:
as §1, §2, §3, §4

The test system of test [7] is Triticum aestivum (winter wheat), TRZAW. The following applies: 20-22 d. On the procedure: as §1, §2, §3, §4
The subject of test [8] is Digitaria sanguinalis (large crabgrass), DIGSA. As to conditions: 20-22 d. On the procedure:
as §1, §2, §3, §4

The subject of test [9] is Abutilon theophrasti (velvetleaf), ABUTH. As to conditions: 20-22 d. On the procedure:
as §1, §2, §3, §4

For test [10], the system named is Viola tricolor (wild pansy), VIOTR. The following applies: 20-22 d. As to the method:
as §1, §2, §3, §4

In test [11] the test system is Brassica juncea (brown mustard), BRSJU. As to conditions: 5 g ae/ha alone, 20-22 d, Table 2. On the procedure: as §1, §2, §3, §4
Test [12] has as its system Brassica alboglabra (chinese kale), BRSAG. As to conditions: 5 g ae/ha alone, 20-22 d, Table 2. As to the method: as §1, §2, §3, §4
Test [13] concerns Brassica napus (spring rape; Roundup Ready), BRSNN-RR. As to conditions: 5 g ae/ha alone, 20-22 d, Table 2. On the procedure: as §1, §2, §3, §4

`O=C(O)CNCP(=O)(O)O` [Glyphosate, N-(phosphonomethyl)glycine]: the “% Visual Injury” value in [1] (BRSNW* (retest), 210 g ai/ha alone, Table 1) was determined as 30%; in test [1] (BRSNW, 210 g ai/ha alone, Table 1) it was 20%; in test [2] (210 g ai/ha alone, Table 1), 25%; in test [3] (210 g ai/ha alone, Table 1), 65%; in test [4] (210 g ai/ha alone, Table 1), 65%; in [5] (210 g ai/ha alone, Table 1), 0%. In addition, the “% Visual Injury” value in test [6] (210 g ai/ha alone, Table 1) is on record as 45%; in [7] (210 g ai/ha alone, Table 1) it was 75%; in test [8] (210 g ai/ha alone, Table 1), 70%; in test [9] (210 g ai/ha alone, Table 1) it was 60%; in [10] (210 g ai/ha alone, Table 1) it was 50%.

For `Nc1c(F)c(-c2ccc3cc[nH]c3c2F)nc(C(=O)O)c1Cl` [Compound 1], the “% Visual Injury” value is listed as 60% in test [11]; 50% in test [1] (BRSNW* (retest), 5 g ae/ha alone, Table 1); 30% in test [1] (BRSNW* (retest), 5 g ae/ha alone, Table 2); 30% in [1] (BRSNW, 5 g ae/ha alone, Table 1); 50% in [1] (BRSNW, 5 g ae/ha alone, Table 2); 10% in test [2] (5 g ae/ha alone, Table 1). For the same compound, the “% Visual Injury” value in test [2] (5 g ae/ha alone, Table 2) was 10%; in test [3] (5 g ae/ha alone, Table 1) it was 50%; in test [3] (5 g ae/ha alone, Table 2), 50%; in test [4] (5 g ae/ha alone, Table 1) it was 70%; in test [4] (5 g ae/ha alone, Table 2), 70%; in test [5] (5 g ae/ha alone, Table 1), 0%. Besides, the “% Visual Injury” value in [5] (5 g ae/ha alone, Table 2) turned out to be 0%; in [6] (5 g ae/ha alone, Table 1) it was 65%; in test [6] (5 g ae/ha alone, Table 2), 65%; in [12] it was 15%; in test [13], 35%; in test [7] (5 g ae/ha alone, Table 1), 5%. The “% Visual Injury” value in [7] (5 g ae/ha alone, Table 2) is on record as 5%; in test [8] (5 g ae/ha alone, Table 1), 5%; in [8] (5 g ae/ha alone, Table 2), 5%; in [9] (5 g ae/ha alone, Table 1), 60%; in test [9] (5 g ae/ha alone, Table 2), 60%; in test [10] (5 g ae/ha alone, Table 1) it was 5%. Moreover, the “% Visual Injury” value in [10] (5 g ae/ha alone, Table 2) was 5%.
